Laboratory results reported in patent USRE47302E1 (ONYX THERAPEUTICS INC., priority 2013, dated 2019).
≈ marks a conversion by molar mass, not a printed value. Like-named read-outs stand apart in the source and are kept apart here.

Tests used:
[1] = target: T1, immunoproteasome subunit LMP7 (Homo sapiens, UniProt P28062); experiment: Proteasome active-site ELISA (ProCISE), LMP7, MOLT-4 lysate; format: biochemical
T1 construct: Lysate from the human acute lymphoblastic leukemia cell line, MOLT-4; endogenous in cells; host or cells: MOLT-4
Experimental: (§1) Test compounds were serially diluted in DMSO at 100× concentration, then diluted to 10× in aqueous hypotonic lysis buffer. Lysate from the human acute lymphoblastic leukemia cell line, MOLT-4, was treated for 1 hour at 25° C. with compound at a final 1× concentration. […] Following, lysate was denatured in guanidine hydrochloride, and subunits bound to probe were isolated with streptavidin-conjugated sepharose beads. Individual subunits (e.g., β5, LMP7, LMP2, MECL-1) were probed with subunit-specific primary antibodies, followed by HRP-conjugated secondary antibodies. A chemiluminescent substrate was used to generate signal associated with HRP binding, which was detected on a plate reader. Luminescent signal was normalized to protein content, then, percent activity calculated relative to DMSO-treated controls to generate IC50 curves.

[2] = Solubility pH 7; details: for solubility: pH 7, aqueous buffer
[3] = target: T2, proteasome subunit β5 (beta5) (Homo sapiens, UniProt P28074); experiment: Proteasome active-site ELISA (ProCISE), beta5, MOLT-4 lysate; format: biochemical
T2 construct: Lysate from the human acute lymphoblastic leukemia cell line, MOLT-4; endogenous in cells; host or cells: MOLT-4
Experimental: as §1

[4] = read-out: ProCISE LMP7 MOLT4 lysate Hu 1 h CONT: IC50, 1 h continuous treatment, 25° C.
[5] = read-out: ProCISE beta5 MOLT4 lysate Hu 1 h CONT: IC50, MOLT4 lysate, human, 1 h continuous treatment, 25° C.
[6] = MOLT4 lysate, 1 h continuous treatment, 25° C.
[7] = MOLT4 lysate, human, 1 h continuous treatment, 25° C.

Row | Structure (SMILES) | IC50 [1, 4] | solubility [2] | IC50 [3, 5] | IC50 [1, 6] | Solubility pH 7 (μg/mL) ([2]; pH 7) | IC50 [3, 7] | IC50 [3]
1 | COc1ccc(C[C@H](NC(=O)[C@@H](C)NC(=O)C2CCCCC2)C(=O)N[C@@H](Cc2ccccc2)C(=O)[C@@]2(C)CO2)cc1 [Compound C-1188] | 0.0292 µM | 12.1 µg/mL (≈ 21.5 µM) | 0.185 µM |  |  |  | 
2 | COc1ccc(C[C@H](NC(=O)[C@@H](C)NC(=O)[C@H]2CC[C@H](O)CC2)C(=O)N[C@@H](CC2CC=CC2)C(=O)[C@@]2(C)CO2)cc1 [Compound C-1074, (1r,4R)-N-((R)-1-(((S)-1-(((S)-3-(cyclopent-3-en-1-yl)-1-((R)-2-methyloxiran-2-yl)-1-oxopropan-2-yl)amino)-3-(4-methoxyphenyl)-1-oxopropan-2-yl)amino)-1-oxopropan-2-yl)-4-hydroxycyclohexanecarboxamide] |  | 1150 µg/mL (≈ 2020 µM) |  | 0.0262 µM |  |  | 0.778 µM
3 | COc1ccc(C[C@H](NC(=O)[C@@H](C)NC(=O)[C@H]2CC[C@H](O)CC2)C(=O)N[C@@H](CC2CCCC2)C(=O)[C@@]2(C)CO2)cc1O [Compound C-1072, (1r,4R)-N-((R)-1-(((S)-1-(((S)-3-cyclopentyl-1-((R)-2-methyloxiran-2-yl)-1-oxopropan-2-yl)amino)-3-(3-hydroxy-4-methoxyphenyl)-1-oxopropan-2-yl)amino)-1-oxopropan-2-yl)-4-hydroxycyclohexanecarboxamide] | 0.0397 µM |  | 3.39 µM |  | 4742.65 μg/mL |  | 
4 | COc1ccc(C[C@H](NC(=O)[C@H](C)NC(=O)CN2CCS(=O)(=O)CC2)C(=O)N[C@@H](CC2=CCCCC2)C(=O)[C@@]2(C)CO2)cc1 [Compound C-1127, (S)-N-((S)-3-(cyclohex-1-en-1-yl)-1-((R)-2-methyloxiran-2-yl)-1-oxopropan-2-yl)-2-((S)-2-(2-(1,1-dioxidothiomorpholino)acetamido)propanamido)-3-(4-methoxyphenyl) propanamide] |  | 1520 µg/mL (≈ 2400 µM) |  | 0.315 µM |  | 4.17 µM | 
5 | Cc1ccc(C[C@H](NC(=O)[C@H](C)NC(=O)CN2CCOCC2)C(=O)N[C@@H](CC2CCCC2)C(=O)[C@@]2(C)CO2)cc1O [Compound C-1117, (S)-N-((S)-3-Cyclopentyl-1-((R)-2-methyloxiran-2-yl)-1-oxopropan-2-yl)-3-(3-hydroxy-4-methylphenyl)-2-((S)-2-(2-morpholinoacetamido)propanamido)propanamide] |  | 1560 µg/mL (≈ 2730 µM) |  | 0.101 µM |  | 1.1 µM | 
6 | COc1ccc(C[C@H](NC(=O)[C@@H](CO)NC(=O)[C@H]2CC[C@H](O)CC2)C(=O)N[C@@H](CC2=CCCC2)C(=O)[C@@]2(C)CO2)cc1 [Compound C-1092, (1r,4R)-N-((R)-1-(((S)-1-(((S)-3-(cyclopent-1-en-1-yl)-1-((R)-2-methyloxiran-2-yl)-1-oxopropan-2-yl)amino)-3-(4-methoxyphenyl)-1-oxopropan-2-yl)amino)-3-hydroxy-1-oxopropan-2-yl)-4-hydroxycyclohexanecarboxamide] |  | 3070 µg/mL (≈ 5240 µM) |  | 0.0293 µM |  | 2.04 µM | 
7 | COc1ccc(C[C@H](NC(=O)[C@H](C)NC(=O)CN2CCOCC2)C(=O)N[C@@H](CC2=CCCC2)C(=O)[C@H]2CO2)cc1 [Compound C-1038, (S)-N-((S)-3-(cyclopent-1-en-1-yl)-1-((R)-oxiran-2-yl)-1-oxopropan-2-yl)-3-(4-methoxyphenyl)-2-((S)-2-(2-morpholinoacetamido)propanamido)propanamide] |  | 230 µg/mL (≈ 414 µM) |  | 0.00907 µM |  | 0.289 µM | 
8 | COc1ccc(C[C@H](NC(=O)[C@@H](C)NC(=O)[C@H]2CC[C@H](O)CC2)C(=O)N[C@@H](Cc2ccc(C)cc2)C(=O)[C@@]2(C)CO2)cc1 [Compound C-1190] | 0.0168 µM | 457 µg/mL (≈ 769 µM) | 0.205 µM |  |  |  | 
9 | C[C@]1(C(=O)[C@H](CC2=CCCCC2)NC(=O)[C@H](Cc2ccc(S(C)(=O)=O)cc2)NC(=O)[C@H](CO)NC(=O)CN2CCOCC2)CO1 [Compound C-1110, (S)-N-((S)-3-(Cyclohex-1-en-1-yl)-1-((R)-2-methyloxiran-2-yl)-1-oxopropan-2-yl)-2-((S)-3-hydroxy-2-(2-morpholinoacetamido)propanamido)-3-(4-(methylsulfonyl)phenyl)propanamide] |  | 8380 µg/mL (≈ 12900 µM) |  | 0.217 µM |  | 4.34 µM | 
10 | COc1ccc(C[C@H](NC(=O)[C@H](C)NC(=O)CN2CCOCC2)C(=O)N[C@@H](CC2CCCC2)C(=O)[C@H]2CO2)cc1OC [Compound C-1071, (S)-N-((S)-3-cyclopentyl-1-((R)-oxiran-2-yl)-1-oxopropan-2-yl)-3-(3,4-dimethoxyphenyl)-2-((S)-2-(2-morpholinoacetamido)propanamido)propanamide] |  | 4300 µg/mL (≈ 7300 µM) |  | 0.106 µM |  | 3.89 µM | 
11 | COc1ccc([C@@H](O)[C@H](NC(=O)[C@H](CO)NC(=O)CN2CCOCC2)C(=O)N[C@@H](CC2=CCCC2)C(=O)[C@@]2(C)CO2)cc1 [Compound C-1144, (2S,3R)-N-((S)-3-(cyclopent-1-en-1-yl)-1-((R)-2-methyloxiran-2-yl)-1-oxopropan-2-yl)-3-hydroxy-2-((S)-3-hydroxy-2-(2-morpholinoacetamido)propanamido)-3-(4-methoxyphenyl)propanamide] |  | > 10000 µg/mL |  | 0.0201 µM |  | 0.266 µM | 
12 | COc1ccc(C[C@H](NC(=O)[C@@H](C)NC(=O)[C@H]2CC[C@](C)(O)CC2)C(=O)N[C@@H](CC2=CCCC2)C(=O)[C@@]2(C)CO2)cc1 [Compound C-1087, (1r,4R)-N-((R)-1-(((S)-1-(((S)-3-(Cyclopent-1-en-1-yl)-1-((R)-2-methyloxiran-2-yl)-1-oxopropan-2-yl)amino)-3-(4-methoxyphenyl)-1-oxopropan-2-yl)amino)-1-oxopropan-2-yl)-4-hydroxy-4-methylcyclohexanecarboxamide] |  | 1130 µg/mL (≈ 1930 µM) |  | 0.0599 µM |  | 1.75 µM | 
13 | C[C@H](NC(=O)CN1CCOCC1)C(=O)N[C@@H](Cc1cc[n+]([O-])cc1)C(=O)N[C@@H](CC1CCCC1)C(=O)[C@@]1(C)CO1 [Compound C-1119, 4-((S)-3-(((S)-3-cyclopentyl-1-((R)-2-methyloxiran-2-yl)-1-oxopropan-2-yl)amino)-2-((S)-2-(2-morpholinoacetamido)propanamido)-3-oxopropyl)pyridine 1-oxide] |  | 10600 µg/mL (≈ 18900 µM) |  | 0.833 µM |  | 1.39 µM | 

Further lines, with some results ahead:

Row | IC50 [1, 4] | solubility [2] | IC50 [3, 5] | IC50 [1, 6] | Solubility pH 7 (μg/mL) ([2]; pH 7) | IC50 [3, 7] | Structure (SMILES) | IC50 [3]
14 |  | 6440 µg/mL (≈ 11000 µM) |  | 1.16 µM |  | 45 µM | COc1ccc(C[C@H](NC(=O)[C@H](C)NC(=O)CN2CCOCC2)C(=O)N[C@@H](CC2=CCOCC2)C(=O)[C@@]2(C)CO2)cc1 [Compound C-1020, (S)-N-((S)-3-(3,6-dihydro-2H-pyran-4-yl)-1-((R)-2-methyloxiran-2-yl)-1-oxopropan-2-yl)-3-(4-methoxyphenyl)-2-((S)-2-(2-morpholinoacetamido)propanamido)propanamide] | 
15 |  | 2590 µg/mL (≈ 4750 µM) |  | 5.15 µM |  | 5.24 µM | COc1ccc(C[C@H](NC(=O)[C@H](C)NC(=O)CN2CCOCC2)C(=O)N[C@@H](CC2CC2)C(=O)[C@@]2(C)CO2)cc1 [Compound C-1006, (S)-N-((S)-3-cyclopropyl-1-((R)-2-methyloxiran-2-yl)-1-oxopropan-2-yl)-3-(4-methoxyphenyl)-2-((S)-2-(2-morpholinoacetamido)propanamido)propanamide] | 
16 |  | 536 µg/mL (≈ 971 µM) |  | 0.36 µM |  | 0.961 µM | COc1ccc(C[C@H](NC(=O)[C@H](C)NC(=O)[C@H]2CCCO2)C(=O)N[C@@H](Cc2ccccc2)C(=O)[C@@]2(C)CO2)cc1 [Compound C-1166, (R)-N-((S)-1-(((S)-3-(4-methoxyphenyl)-1-(((S)-1-((R)-2-methyloxiran-2-yl)-1-oxo-3-phenylpropan-2-yl)amino)-1-oxopropan-2-yl)amino)-1-oxopropan-2-yl)tetrahydrofuran-2-carboxamide] | 
17 | 0.161 µM | 3030 µg/mL (≈ 5080 µM) | 0.874 µM |  |  |  | COc1ccc(C[C@H](NC(=O)[C@@H](CO)NC(=O)CN2CCOCC2)C(=O)N[C@@H](Cc2ccccc2)C(=O)[C@@]2(C)CO2)cc1 [Compound C-1158] | 
18 |  | 3200 µg/mL (≈ 5600 µM) |  | 0.0471 µM |  | 0.335 µM | COc1ccc(C[C@H](NC(=O)[C@H](C)NC(=O)CN2CCOCC2)C(=O)N[C@@H](CC2CC=CC2)C(=O)[C@@]2(C)CO2)cc1 [Compound C-1066, (S)-N-((S)-3-(cyclopent-3-en-1-yl)-1-((R)-2-methyloxiran-2-yl)-1-oxopropan-2-yl)-3-(4-methoxyphenyl)-2-((S)-2-(2-morpholinoacetamido)propanamido)propanamide] | 
19 |  | 790 µg/mL (≈ 1430 µM) |  | 0.155 µM |  | 0.526 µM | COc1ccc(C[C@H](NC(=O)[C@H](C)NC(=O)[C@@H]2CCCO2)C(=O)N[C@@H](Cc2ccccc2)C(=O)[C@@]2(C)CO2)cc1 [Compound C-1167, (S)-N-((S)-1-(((S)-3-(4-methoxyphenyl)-1-(((S)-1-((R)-2-methyloxiran-2-yl)-1-oxo-3-phenylpropan-2-yl)amino)-1-oxopropan-2-yl)amino)-1-oxopropan-2-yl)tetrahydrofuran-2-carboxamide] | 
